# Experimental data reported in patent US20240130368A1, “HERBICIDAL COMPOSITION” (Nippon Soda Co., Ltd., priority 2021, published 2024).
# Experiments:
# Type in all cases: in vivo
# [1] = tested on: Abutilon theophrasti; assay: Test Example 3: seeds on filter paper moistened with chemical solution, herbicidal effect visually evaluated; conditions: Compound (I-3) alone, 6 days after the treatment
# Method: The compound (I) or compound (II) was prepared into a 5% emulsion using DMF (containing 1.5% Tween) and diluted with water to a prescribed dosage concentration. Commercially available preparations were dissolved in water and adjusted to a prescribed dosage concentration.
# Seeds were soaked in 0.6% sodium hypochlorite for a predetermined time for surface sterilization and washed with water for use (seed disinfection). Seeds of Ambrosia artemisiifolia were used for the test.
# Filter paper was placed on a cup (diameter: 10 cm, height: 4 cm) with a lid and moistened with 8 ml of chemical solution, and seeds were sown thereon, and after covering with a lid, grown in a constant temperature room.
# The herbicidal effects were visually evaluated, 6 days after the treatment, as the herbicidal effect (%), by comparing with a state of an untreated group using a total of 21 scores of withering index from 0 to 20 (0: mortality rate equivalent to that of the untreated group, 20: mortality rate of 100%).
# In addition, the expected values of the herbicidal effects were calculated from the herbicidal effects in a case where the compound (I) alone was applied and the herbicidal effects in a case where the compound (II) alone was applied by using the Colby's formula (Colby, S. R., Calculating synergistic and antagonistic responses of herbicide combinations, Weeds, 15, pp. 20-22 (1967)).
# M indicates an herbicidal effect (%) in the application of the compound (I) alone, N indicates an herbicidal effect (%) in the application of the compound (II) alone, and E indicates an expected value (%) of the herbicidal effect in the combined application of the compound (T) and the compound (TT). When the actual measured value (%) of the herbicidal effect in the combined application of the compound (I) and the compound (II) is greater than the expected value E, it can be regarded that the combined application of the compound (I) and the compound (II) has a synergistic effect.
# The herbicidal effects were evaluated by the same method as in Test Example 1 except that the seeds used in the test were changed from Ambrosia artemisiifolia to Abutilon theophrasti.
# [2] = tested on: Digitaria ciliaris; assay: Test Example 2: seeds on filter paper moistened with chemical solution, herbicidal effect visually evaluated; conditions: Compound (I-3) alone, 0.2 ppm, 6 days after the treatment
# [3] = tested on: Ipomoea hederacea; assay: Test Example 6: foliar spraying treatment, herbicidal effect from above ground weight; conditions: Compound (I-3) alone
# Method: (§1) POA allylphenyl ether (4.1 parts by weight), POE-POP glycol (1 part by weight), POE sorbitan laurate (0.8 parts by weight), glycerin (2.6 parts by weight), dimethylformamide (65.9 parts by weight), N-methylpyrrolidone (5.1 parts by weight), cyclohexanone (15.4 parts by weight), and aromatic hydrocarbons (5.1 parts by weight) were mixed and dissolved to prepare an emulsion. The active ingredient (4 mg) of the composition of the present invention was dissolved in this emulsion (100 μL) to prepare a test emulsion. It should be noted that POA means “polyoxyalkylene”, POE means “polyoxyethylene”, and POP means “polyoxypropylene”.
# (§2) A test emulsion was prepared in the same manner as in Test Example 4.
# (§3) A 300 cm^2 pot was filled with soil, and seeds of Zea mays and Ipomoea hederacea were sown into the surface layer, and then grown in a greenhouse after being covered lightly with soil. When each plant grew to a plant height of 7 to 9 cm, the above test emulsion was diluted so that the amount of the active ingredient became a predetermined amount, and sprayed on the foliage with a small sprayer at a spray water volume of 250 L per hectare.
# (§4) Test Examples 6-1 and 6-3 were evaluated in the same manner as in Test Example 4.
# (§5) The expected values of the herbicidal effects in Test Example 6-2 were calculated using the following Colby's formula (Colby, S. R., Calculating synergistic and antagonistic responses of herbicide combinations, Weeds, 15, pp. 20-22 (1967)).
# (§6) X indicates an herbicidal effect (%) by applying the compound (1) alone, Y and Z each indicate an herbicidal effect (%) by applying one of the two types of the compounds (II) alone, and E indicates an expected value (%) of the herbicidal effect by applying combinations of the compound (I) and two types of the compounds (II).
# (§7) When the actual measured value (%) of the herbicidal effect by the combined application of the compound (I) and two types of the compounds (11) is greater than the expected value E, it can be regarded that the combined application of the compound (1) and two types of the compounds (II) has a synergistic effect.
# The following grass species were used as grass species to be controlled [scientific names]. • Morning glory [Ipomoea hederacea]
# [4] = tested on: multidrug-resistant Alopecurus myosuroides; assay: Test Example 5: spraying on the soil surface, herbicidal effect from above ground weight; conditions: Compound (I-3) alone, sprayed on the soil surface, seven weeks after spraying, Alopecurus myosuroides multidrug-resistant strain
# Method: as §1
# (§8) For the evaluation of the herbicidal effects, the above ground weights of weeds in the untreated and treated areas were measured for each weed 3 weeks after spraying treatment, and the herbicidal effect (%) was calculated by the following calculation formula.
# (§9) Herbicidal effect (%)=[(above ground weight of weeds in untreated area)−(above ground weight of weeds in treated area)/(above ground weight of weeds in untreated area)]×100
# as §2
# (§10) A 300 cm^2 pot was filled with soil, and seeds of Triticum aestivum, multidrug-resistant Alopecurus myosuroides, Lolium multiflorum and Avena fatua were sown into the surface layer, and covered with soil to a thickness of 0.5 to 1 cm. The above test emulsion was diluted so that the amount of the active ingredient became a predetermined amount, and sprayed on the soil surface at a spray water volume of 250 L per hectare, followed by growth in an outdoor environment.
# (§11) Seven weeks after spraying, the evaluation was carried out in the same manner as in Test Example 4, except that the above ground weights of weeds in the untreated and treated areas were measured for each weed.
# (§12) The following grass species were used as grass species to be controlled [scientific names]. • Blackgrass * [Alopecurus myosuroides] • Italian ryegrass [Lolium multiflorum] • Wild oat [Avena fatua]
# [5] = tested on: Avena fatua; assay: as above; conditions: Compound (I-3) alone, sprayed on the soil surface, seven weeks after spraying
# Method: as §1, §8, §9, §2, §10, §11, §12
# [6] = tested on: Lolium multiflorum; assay: as above; conditions: Compound (I-3) alone, sprayed on the soil surface, seven weeks after spraying
# Method: as §1, §8, §9, §2, §10, §11, §12
# [7] = tested on: Zea mays; assay: Test Example 6: foliar spraying treatment, herbicidal effect from above ground weight (useful plant); conditions: Compound (I-3) alone
# Method: as §1, §2, §3, §4, §5, §6, §7
# The following plants were used as useful plants [scientific names]. • Corn for animal feed [Zea mays]
smiles,measurement,setting,value
"COC12OC1(c1ccc(C(F)(F)F)c3c1CCCS3(=O)=O)C=NN(C)C2=O (stereo not shown) [Compound (I-3), 1-methoxy-3-methyl-6-(1,1-dioxido-8-(trifluoromethyl)thiochroman-5-yl)-7-oxa-3,4-diazabicyclo[4.1.0]hept-4-en-2-one]",Herbicidal effect,[1]; 0.2 ppm,75%
same,Herbicidal effect,[1]; 3.1 ppm,75%
same,Herbicidal effect,[2],75%
same,Actual measured value of herbicidal effect,[3]; 94 gai/ha,80%
same,Actual measured value of herbicidal effect,[3]; 125 gai/ha,60%
same,Actual measured value of herbicidal effect,[4]; 63 gai/ha,0%
same,Actual measured value of herbicidal effect,[4]; 125 gai/ha,30%
same,Actual measured value of herbicidal effect,[5]; 63 gai/ha,0%
same,Actual measured value of herbicidal effect,[5]; 125 gai/ha,20%
same,Actual measured value of herbicidal effect,[6]; 63 gai/ha,60%
same,Actual measured value of herbicidal effect,[6]; 125 gai/ha,80%
same,Actual measured value of herbicidal effect,[7]; 94 gai/ha,0%
same,Actual measured value of herbicidal effect,[7]; 125 gai/ha,0%
